# Values quoted from earlier work as cited in US20200030265A1, “ANTI[…] AND USES THEREOF” (CSP PHARMA, INC., priority 2017, published 2020).
# Test system: ASDs mouse model
# Details: includes core social deficits, sensorimotor coordination, Purkinje cell loss, P2Y2 and P2X7 expression (Naviaux et al. 2013)
structure (smiles),measurement,value
"Cc1ccc(C(=O)Nc2ccc(S(=O)(=O)O)c3cc(S(=O)(=O)O)cc(S(=O)(=O)O)c23)cc1NC(=O)c1cccc(NC(=O)Nc2cccc(C(=O)Nc3cc(C(=O)Nc4ccc(S(=O)(=O)O)c5cc(S(=O)(=O)O)cc(S(=O)(=O)O)c45)ccc3C)c2)c1 [suramin, Suramin]",multisystem abnormalities that defined the ASD-like phenotype corrected,16
